Data: patent US20080182125A1, “Cationic latex as a carrier for bioactive ingredients and its use in wallboard manufacture” (priority 2006, published 2008)
Like-named read-outs stand apart in the source and are kept apart here.

Key:
[1] = Solubility of additives used in polymerization; format: physicochemical
fungal species [2] = assay: 30-III fungal test on 1"X1" chip of dried latex, 7 days; format: cell-based; settings: 7 day incubation, FIG. 5
From the text: FIG. 5 is a graph showing the results of a 30-III fungal test, based on making a 1″X1″ chip of the dried latex, inoculating the fungal species directly on to the sample, and then observing its growth after 7 days.
The 30-III fungal test was based on making a 1″X1″ chip of the dried latex and inoculating the fungal species directly on to the sample and then observing its growth after 7 days.

fungal species [3] = assay: ASTM D-3273 second round test of coated paper, 28 days, spores in humidity chamber; format: cell-based; settings: increased coating thickness, FIG. 6
Description: FIG. 6 is a graph showing the results of a second round of testing of coated paper samples, tested according to ASTM D-3273 over a period of 28 days. In this study, the fungal species were not directly inoculated on the surface, but rather, were maintained in the humidity chamber as spores that would then land on the surface of the coated paper.
A second round of testing was performed using an increased coating thickness to ensure full coverage of the paper surface. The second round of testing of the coated paper samples were tested according to ASTM D-3273. In this study, the duration remained the same (28 days), but the fungal species were not directly inoculated on the surface. Rather, they were maintained in the humidity chamber as spores that would then land on the surface of the coated paper as in a real world example. The results of this study are outlined in FIG. 6.

[4] = Stability of additive under polymerization conditions; format: physicochemical; settings: incorporated in relatively high amounts
From the text: Ideally, the materials are substantially unreactive during the polymerization conditions, so they are not degraded during polymerization. In some embodiments, low levels of additive might be observed, whether due to degradation, or difficulty in extraction from the polymer latex. In any case, retention of the additive in the latex leads to retention of antifungal properties in the finished paper.
The polymerization temperature was investigated as a potential contributor to degradation, and it was kept as low as was feasible (typically <70° C.). The samples were stripped at the end of polymerization to the desired solids content.

[5] = additives used in polymerization, solubility in monomer or water

Molecule	Solubility [1, 5]	Fungal inhibition, 30-III test (fungal species [2])	Antifungal effectiveness, ASTM D-3273 (fungal species [3])	also measured
Oc1cc(Cl)ccc1Oc1ccc(Cl)cc1Cl [Triclosan, Chlorodiphenyl ether]	Solid. Fairly	–	–	–
CCCC1COC(Cn2cncn2)(c2ccc(Cl)cc2Cl)O1 (stereo not shown) [Microban PZ, Propiconazole]	–	–	–	Solubility [1]: Fairly soluble
CC(C)(C)C(O)(CCc1ccc(Cl)cc1)Cn1cncn1 (stereo not shown) [Microban TZ, Tebuconazole]	Fairly soluble	–	–	–
Zinc pyrithione [Microban Z01]	–	performed well	did not perform well	–
Cc1ccc(S(=O)(=O)C(I)I)cc1 [Amical AF, Diiodomethyltoluyl sulfone]	Limited	some fungal inhibition	effective	Degradation during polymerization [4]: degraded
[Na+].[O-]c1ccccc1-c1ccccc1 [Microban P2, Sodium orthophenyl phenate]	Solid. Water	–	–	–
